Measured values from PubChem BioAssay (NCI).
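Tested at 5 concentrations; 48 h exposure; 96-well plates; endpoints linearly interpolated, else capped at highest concentration. Here, GI50 denotes the concentration required for 50% inhibition of growth. At the TGI there is no net growth.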

How the values were obtained:
Test in all cases: NCI tumour cell line growth inhibition, 48 h
[1] = test system: ACHN renal
[2] = test system: U251 CNS
[3] = test system: SNB-19 CNS
[4] = test system: HCT-116 colon
[5] = test system: OVCAR-8 ovarian
[6] = test system: SW-620 colon
[7] = test system: HOP-62 NSCLC
[8] = test system: UACC-62 melanoma
[9] = test system: M14 melanoma
[10] = test system: OVCAR-4 ovarian
[11] = test system: SK-OV-3 ovarian
[12] = test system: DU-145 prostate
[13] = test system: SK-MEL-5 melanoma
[14] = test system: NCI-H522 lung
[15] = test system: SR leukemia
[16] = test system: CAKI-1 renal
[17] = test system: UACC-257 melanoma
[18] = test system: UO-31 renal
[19] = test system: T-47D breast
[20] = test system: LOX IMVI melanoma
[21] = test system: MOLT-4 leukemia
[22] = test system: HS 578T breast
[23] = test system: RPMI-8226 leukemia
[24] = test system: SK-MEL-28 melanoma
[25] = test system: SN12C renal
[26] = test system: MDA-MB-231 breast
[27] = test system: TK-10 renal
[28] = test system: SNB-75 CNS
[29] = test system: K-562 leukemia
[30] = test system: HCC-2998 colon
[31] = test system: HL-60(TB) leukemia
[32] = test system: NCI-H226 lung
[33] = test system: OVCAR-5 ovarian
[34] = test system: COLO 205 colon
[35] = test system: HOP-92 NSCLC
[36] = test system: CCRF-CEM leukemia
[37] = test system: MALME-3M melanoma
[38] = test system: MDA-MB-435
[39] = test system: A498 renal
[40] = test system: RXF 393 renal
[41] = test system: SF-539 CNS
[42] = test system: HCT-15 colon
[43] = test system: NCI-H23 lung
[44] = test system: SF-295 CNS
[45] = test system: 786-0 renal
[46] = test system: IGROV1 ovarian
[47] = test system: KM12 colon
[48] = test system: PC-3 prostate
[49] = test system: HT29 colon
[50] = test system: MCF7 breast
[51] = test system: EKVX NSCLC
[52] = test system: NCI-H460 lung
[53] = test system: A549 NSCLC
[54] = test system: SF-268 CNS
[55] = test system: NCI/ADR-RES ovarian
[56] = test system: BT-549 breast

Work on `CC(=O)/C(N=Nc1ccc2oc(=O)ccc2c1)=C(\C)O` yielded a GI50 [1] of 0.553 µM, a TGI [1] of 11.9 µM and a GI50 [2] of 2.77 µM. It also gave a TGI [2] of 12.5 µM, a GI50 [3] of 3.39 µM and a TGI [3] of 15 µM. The GI50 [4] was 2.23 µM, the TGI [4] was 12 µM and the GI50 [5] was 2.72 µM. For the same compound, the TGI [5] was 13.6 µM, the GI50 [6] was 3.15 µM and the TGI [6] was 13.7 µM. For the same compound, the GI50 [7] was 3.62 µM, the TGI [7] was 16.3 µM and the GI50 [8] was 2.64 µM. The TGI [8] was 12.2 µM, the GI50 [9] was 2.77 µM and the TGI [9] was 15.7 µM. The GI50 [10] was 3.81 µM, the TGI [10] was 18.7 µM and the GI50 [11] was 4.31 µM. For the same compound, the TGI [11] was 15.1 µM, the GI50 [12] was 4.71 µM and the TGI [12] was 19 µM. It also gave a GI50 [13] of 2.09 µM, a TGI [13] of 4.92 µM and a GI50 [14] of 2.12 µM. It also gave a TGI [14] of 10.8 µM, a GI50 [15] of 1.67 µM and a TGI [15] of 7.73 µM. For the same compound, the GI50 [16] was 2.16 µM, the TGI [16] was 14.6 µM and the GI50 [17] was 3.36 µM. For the same compound, the TGI [17] was 14.8 µM, the GI50 [18] was 0.355 µM and the TGI [18] was 11.8 µM. The GI50 [19] was 1.84 µM, the TGI [19] was 9.19 µM and the GI50 [20] was 2.92 µM. The TGI [20] was 12.4 µM, the GI50 [21] was 2.66 µM and the TGI [21] was 12.7 µM. The GI50 [22] was 3.64 µM, the TGI [22] was 19 µM and the GI50 [23] was 1.89 µM. The TGI [23] was 11.4 µM, the GI50 [24] was 4.53 µM and the TGI [24] was 16.4 µM. The GI50 [25] was 2.58 µM, the TGI [25] was 14.7 µM and the GI50 [26] was 4.77 µM. For the same compound, the TGI [26] was 18.1 µM, the GI50 [27] was 2.35 µM and the TGI [27] was 12.7 µM. The GI50 [28] was 5 µM, the TGI [28] was 18.6 µM and the GI50 [29] was 0.528 µM. The TGI [29] was 17 µM, the GI50 [30] was 3.99 µM and the TGI [30] was 15.7 µM. It also gave a GI50 [31] of 1.12 µM, a TGI [31] of 9.15 µM and a GI50 [32] of 2.48 µM. For the same compound, the TGI [32] was 15.2 µM, the GI50 [33] was 5.04 µM and the TGI [33] was 18.4 µM. For the same compound, the GI50 [34] was 1.76 µM, the TGI [34] was 3.39 µM and the GI50 [35] was 2.46 µM. For the same compound, the TGI [35] was 7.43 µM, the GI50 [36] was 1.65 µM and the TGI [36] was 13.4 µM. For the same compound, the GI50 [37] was 3 µM, the TGI [37] was 13.6 µM and the GI50 [38] was 3.88 µM. For the same compound, the TGI [38] was 15.5 µM, the GI50 [39] was 2.34 µM and the TGI [39] was 10.4 µM. For the same compound, the GI50 [40] was 2.99 µM, the TGI [40] was 16.3 µM and the GI50 [41] was 4.11 µM. The TGI [41] was 14.1 µM, the GI50 [42] was 0.495 µM and the TGI [42] was 13.7 µM. The GI50 [43] was 3.37 µM, the TGI [43] was 15.8 µM and the GI50 [44] was 2.22 µM. For the same compound, the TGI [44] was 12.7 µM, the GI50 [45] was 5.31 µM and the TGI [45] was 17.4 µM. For the same compound, the GI50 [46] was 2.93 µM, the TGI [46] was 16.3 µM and the GI50 [47] was 3.36 µM. For the same compound, the TGI [47] was 13.7 µM, the GI50 [48] was 2.73 µM and the TGI [48] was 12.3 µM. For the same compound, the GI50 [49] was 2.96 µM, the TGI [49] was 12.7 µM and the GI50 [50] was 2.49 µM. For the same compound, the TGI [50] was 13 µM, the GI50 [51] was 2.72 µM and the TGI [51] was 15.1 µM. The GI50 [52] was 2.11 µM, the TGI [52] was 12.1 µM and the GI50 [53] was 3.2 µM. The TGI [53] was 13.3 µM, the GI50 [54] was 5.14 µM and the TGI [54] was 21.1 µM. For the same compound, the GI50 [55] was 0.29 µM, the TGI [55] was 13.2 µM and the GI50 [56] was 3.12 µM. It also gave a TGI [56] of 8.52 µM.
